Read-outs that look alike come from different tables or passages of the source.
Assays:
IrS ISF cell line = assay: cells; assay type: cell-based; settings: Cricetulus griseus, 24 h, read-out: LC50 (the concentration of the active component that kills 50% of the cells)
From the text: The AA8, irs1SF and CXR3 cell lines were provided by Larry Thompson.
Toxicity Assay—Clonogenic Survival Assay

[1] = Plasma and tumour concentrations in mice bearing SW620 xenografts after intraperitoneal administration; assay type: in vivo
PARP [2] = target: T1, PARP (Homo sapiens, UniProt P09874); assay: PARP activity in SW620 xenograft tumour homogenates from formula III-treated mice ([32P] NAD+ incorporation); assay type: in vivo; settings: 10 mg/kg intraperitoneal
T1 construct: PARP activity in tumour homogenates (1 in 40 in isotonic buffer) from formula III-treated mice; from tissue; host or cells: homogenates of SW620 xenograft tumours grown in mice
Description: FIG. 7 is a bar chart showing the pharmacokinetics and pharmacodynanics with formula III in mice bearing SW620 xenografts;
(§1) Exponentially growing cells were exposed to 1% DMSO in culture medium (control) or a compound of formula I or III in 1% DMSO at the concentrations indicated in FIG. 4 to cells permeabilised with digitonin, or intact cells for 20 minutes prior to washing and digitonin-permeabilization. PARP activity was measured by incorporation of a [32P] labelled NAD+ substrate into TCA precipitateble polymers after stimulation by the addition of a blunt-ended oligonucleotide and compared with non-oligonucleotide-stimulated cells. PARP activity in tumour homogenates (1 in 40 in isotonic buffer) from formula III-treated mice was measured in the same way. PARP activity in pbls and tumour homogenates from formula I-phospate treated mice was measured by immunological detection of polymer using the 10H antibody. […] The poly(ADP-ribose) (PAR) polymer formation was quantified by chemiluminescence detection using a Fuji LAS3000 UV Illuminator by reference to serial dilutions of a PAR standard, following incubation with 10H antibody to PAR and a secondary anti-mouse antibody. The results were standardised by reference to the measured protein content of the homogenate.

SW620 xenografts = assay: Tumour growth (median relative tumour volume) in mice bearing SW620 xenografts; assay type: in vivo
From the text: FIG. 8 is a graph showing the tumour growth (median relative tumour volume) in mice bearing SW620 xenografts following treatment with formula III in combination with temozolomide (TMZ) and with TMZ alone;
FIG. 9 is a graph showing the tumour growth (median relative tumour volume) of mice bearing SW620 xenografts following treatment with formula I-phosphate in combination with temozolomide (TMZ) and with formula I-phosphate and TMZ alone;
However, shortly after this time the tumour size begins to increase.

VC8 cell line [3] = assay: Clonogenic survival assay, VC8 cell line (lacks BRCA2)
Description: (§4) All cell lines in this study were grown in Dulbecco's modified Eagle's Medium (DMEM) with 10% Foetalbovine serum and penicillin (100 U/ml) and steptomycin sulphate (100 μg/mL) at 37° C. under an atmosphere containing 5% CO2.
(§5) The cells were harvested by trypsinisation, counted and seeded at varying densities in 10 cm dishes in fresh medium in the absence of drug for colony formation.
(§6) 7-10 days later the dishes were fixed with methanol:acetic acid 3:1 and stained with 0.4% crystal violet.
(§7) Colonies were counted and the survival relative to 1% DMSO control treated cells calculated.

PARP [4] = target: T2, PARP (Mus musculus, UniProt P11103); assay: PARP activity assay in digitonin-permeabilised L1210 cells; assay type: cell-based; design: endogenous in cells; host or cells: L1210 cells, digitonin-permeabilised; settings: L1210 cells permeabilised prior to adding the inhibitor
Description: (§2) Exponentially growing cells were exposed to 1% DMSO in culture medium (control) or a compound of formula I or III in 1% DMSO at the concentrations indicated in FIG. 4 to cells permeabilised with digitonin, or intact cells for 20 minutes prior to washing and digitonin-permeabilization. PARP activity was measured by incorporation of a [32P] labelled NAD+ substrate into TCA precipitateble polymers after stimulation by the addition of a blunt-ended oligonucleotide and compared with non-oligonucleotide-stimulated cells. PARP activity in tumour homogenates (1 in 40 in isotonic buffer) from formula III-treated mice was measured in the same way. PARP activity in pbls and tumour homogenates from formula I-phospate treated mice was measured by immunological detection of polymer using the 10H antibody. Briefly, tumour homogenates diluted to up to 1:1000 in isotonic buffer were incubated with 350 μM NAD for 6 min and blotted onto nitrocellulose membrane. The poly(ADP-ribose) (PAR) polymer formation was quantified by chemiluminescence detection using a Fuji LAS3000 UV Illuminator by reference to serial dilutions of a PAR standard, following incubation with 10H antibody to PAR and a secondary anti-mouse antibody.

VC8 cell line [5] = settings: hamster, 24 h
Description: as §4, §5, §6, §7

PARP [6] = target: T2, PARP; assay: PARP activity assay in intact L1210 cells (20 minutes exposure before permeabilisation); assay type: cell-based; design: endogenous in cells; host or cells: L1210 cells, digitonin-permeabilised; settings: exposed 20 minutes prior to permeabilisation
Description: as §2

[7] = Solubility of the phosphate salt; assay type: physicochemical; settings: phosphate salt vs parent compound
PARP [8] = target: T1, PARP; assay: PARP activity in SW620 xenograft tumour homogenates after formula I-phosphate (10H antibody detection); assay type: in vivo, mice
Description: (§3) FIG. 6 is a pair of bar charts showing the blood and tumour pharmacokinetics and pharmacodynamics with formula I-phosphate at 1 mg/kg (upper) and 10 mg/kg (lower) in mice bearing SW620 xenografts;
as §1, with “antibody.” for “antibody. The results were standardised by reference to the measured protein content of the homogenate.”

PARP [9] = target: T2, PARP; assay: PARP activity in mouse peripheral blood lymphocytes after formula I-phosphate (10H antibody detection); assay type: in vivo; design: PARP activity in pbls and tumour homogenates from formula I-phospate treated mice; from tissue; host or cells: peripheral blood lymphocytes of treated mice; settings: 10 mg/kg intraperitoneal, up to 24 hr
Description: as §3
as §1, with “antibody.” for “antibody. The results were standardised by reference to the measured protein content of the homogenate.”

[10] = 10 mg/kg intraperitoneal, SW620 xenograft

T2 sequence (P11103 whole entry): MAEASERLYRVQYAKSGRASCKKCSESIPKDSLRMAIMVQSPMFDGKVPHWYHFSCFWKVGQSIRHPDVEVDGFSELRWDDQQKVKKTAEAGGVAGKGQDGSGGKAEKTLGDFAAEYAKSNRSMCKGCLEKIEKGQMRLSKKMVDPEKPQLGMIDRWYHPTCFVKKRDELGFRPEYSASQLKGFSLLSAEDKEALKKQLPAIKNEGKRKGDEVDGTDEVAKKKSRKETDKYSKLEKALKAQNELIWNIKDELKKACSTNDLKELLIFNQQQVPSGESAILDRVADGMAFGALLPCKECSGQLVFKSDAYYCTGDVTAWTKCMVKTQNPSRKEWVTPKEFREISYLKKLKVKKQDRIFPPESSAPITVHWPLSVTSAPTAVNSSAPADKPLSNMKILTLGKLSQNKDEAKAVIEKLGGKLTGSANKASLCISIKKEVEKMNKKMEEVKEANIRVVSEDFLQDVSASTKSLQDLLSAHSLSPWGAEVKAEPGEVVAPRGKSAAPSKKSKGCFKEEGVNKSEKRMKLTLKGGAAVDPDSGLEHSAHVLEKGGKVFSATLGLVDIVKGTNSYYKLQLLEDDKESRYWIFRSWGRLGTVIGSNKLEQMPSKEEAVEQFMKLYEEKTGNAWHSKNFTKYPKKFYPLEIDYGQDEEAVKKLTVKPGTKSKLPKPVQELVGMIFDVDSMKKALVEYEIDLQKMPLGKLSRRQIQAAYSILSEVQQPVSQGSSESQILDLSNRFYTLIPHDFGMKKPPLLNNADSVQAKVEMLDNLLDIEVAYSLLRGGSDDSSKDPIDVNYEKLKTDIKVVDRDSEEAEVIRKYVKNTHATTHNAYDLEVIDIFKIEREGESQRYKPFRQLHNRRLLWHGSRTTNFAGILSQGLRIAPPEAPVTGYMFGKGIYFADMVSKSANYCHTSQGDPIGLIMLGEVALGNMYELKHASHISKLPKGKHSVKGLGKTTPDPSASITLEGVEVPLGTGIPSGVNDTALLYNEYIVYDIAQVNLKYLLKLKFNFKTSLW
T1 sequence (P09874 whole entry): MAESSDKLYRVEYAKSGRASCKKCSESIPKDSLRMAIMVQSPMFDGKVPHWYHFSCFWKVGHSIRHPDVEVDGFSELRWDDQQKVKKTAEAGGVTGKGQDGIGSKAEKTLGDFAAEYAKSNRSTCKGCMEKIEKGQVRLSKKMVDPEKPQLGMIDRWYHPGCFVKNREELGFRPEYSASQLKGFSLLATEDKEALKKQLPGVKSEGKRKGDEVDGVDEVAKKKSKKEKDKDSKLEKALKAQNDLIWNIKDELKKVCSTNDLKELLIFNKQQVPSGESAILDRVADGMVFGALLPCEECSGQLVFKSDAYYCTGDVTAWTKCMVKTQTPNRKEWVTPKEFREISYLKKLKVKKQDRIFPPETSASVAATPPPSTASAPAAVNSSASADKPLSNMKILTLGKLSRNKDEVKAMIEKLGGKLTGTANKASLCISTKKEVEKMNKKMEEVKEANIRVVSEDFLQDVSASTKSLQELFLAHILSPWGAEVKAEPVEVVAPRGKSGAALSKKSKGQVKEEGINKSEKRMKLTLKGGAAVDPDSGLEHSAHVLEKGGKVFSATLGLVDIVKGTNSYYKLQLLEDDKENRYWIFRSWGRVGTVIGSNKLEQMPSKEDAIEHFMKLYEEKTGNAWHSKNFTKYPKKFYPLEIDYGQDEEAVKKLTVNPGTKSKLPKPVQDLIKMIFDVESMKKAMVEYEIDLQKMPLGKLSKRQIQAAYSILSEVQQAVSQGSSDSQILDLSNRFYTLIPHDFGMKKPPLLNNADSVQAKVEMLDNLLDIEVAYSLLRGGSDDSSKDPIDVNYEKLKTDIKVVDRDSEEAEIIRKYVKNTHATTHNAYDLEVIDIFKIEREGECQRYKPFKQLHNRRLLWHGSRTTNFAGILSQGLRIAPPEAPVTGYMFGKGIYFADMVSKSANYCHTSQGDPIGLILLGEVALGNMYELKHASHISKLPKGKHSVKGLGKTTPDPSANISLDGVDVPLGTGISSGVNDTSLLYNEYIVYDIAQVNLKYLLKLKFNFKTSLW

CN(C)Cc1ccc(-c2nc3cccc4c3n2CCNC4=O)cc1 [Formula III]
CC50 (IrS ISF cell line): 100 nM | distribution to tumour [1, 10]: distributes well to the tumour | retention in tumour relative to plasma with time [1, 10]: preferentially retained with time | PARP activity in the tumour (PARP [2]): inhibits PARP activity in the tumour | time over which tumour shrinks to an undetectable size (SW620 xenografts; formula III 5 mg/kg daily×5 with temozolomide 68 mg/kg daily×5): around 15 days | further time tumour size remains undetectable (SW620 xenografts; formula III 5 mg/kg daily×5 with temozolomide 68 mg/kg daily×5, then begins to increase): 50 days | tumour outcome at autopsy (SW620 xenografts; formula III 15 mg/kg daily×5 with temozolomide, end of the experiment): complete tumour regression | further time tumour size remains undetectable (SW620 xenografts; formula III 15 mg/kg daily×5 with temozolomide, until the end of the experiment): 80 days | LC90 (concentration of active component that kills 90% of the cells) (VC8 cell line [3]): 1200 nM | CC50 (VC8 cell line [3]; read-out: LC50): 43 nM | PARP inhibitory activity, formula I compared with formula III (PARP [4]): no difference

CNCc1ccc(-c2[nH]c3cc(F)cc4c3c2CCNC4=O)cc1 [Formula I]
CC50 (VC8 cell line [5]): 12 nM | LC90 (concentration of active component that kills 90% of the cells) (VC8 cell line [3]): 27 nM | PARP inhibitory activity, formula I compared with formula III (PARP [4]): no difference | PARP inhibitory activity, formula I compared with formula III (PARP [6]): more potent in intact cells

CNCc1ccc(-c2[nH]c3cc(F)cc4c3c2CCNC4=O)cc1.O=P(O)(O)O [formula I-phosphate]
solubility relative to formula I [7]: increases the solubility | levels of formula I in plasma and tumour ([1]; 1 mg/kg intraperitoneal, compared with 10 mg/kg): lower levels | plasma concentration of parent compound formula I ([1]; 10 mg/kg intraperitoneal, 24 hr after administration): none could be detected | tumour concentration of parent compound formula I ([1]; 10 mg/kg intraperitoneal, 24 hr after administration, SW620 xenograft): significant levels were detectable | plasma concentration of parent compound formula I ([1]; 10 mg/kg intraperitoneal, thirty minutes after administration): highlevels | tumour concentration of parent compound formula I ([1]; 10 mg/kg intraperitoneal, thirty minutes after administration, SW620 xenograft): highlevels | effect on PARP activity (PARP [8]; 1 mg/kg intraperitoneal, compared with 10 mg/kg, pbls and tumour): less pronounced effect | PARP activity in tumour (PARP [8]; 10 mg/kg intraperitoneal, up to 24 hr, SW620 xenograft): < 50 % control | PARP activity in pbls (PARP [9]): < 50 % control

Reference: patent US7351701B2, “Therapeutic compounds” (Cancer Research Technology Limited, priority 2004, dated 2008)
